Where a name gives a salt, the structure may show the parent alone.
Target: human Mnk2a (Homo sapiens (Human), UniProt Q9HBH9)
Assay: Mnk2a in vitro kinase assay (indirect competitive fluorescence polarization)
Type: biochemical
Settings: pre-activated GST-Mnk2a 2.5 nM, 20 μM ATP, 30 μM substrate peptide; read-out: MNK2 IC50
Method: Inhibitory potency of compounds against Mnk1, Mnk2a and other kinases was assessed with assays based on a format known to those skilled in the art as the indirect (competitive) fluorescence polarization. The assay detection system comprises a small fluorophore-labeled phospho-peptide (termed ligand) bound to a phospho-specific antibody. The product generated by the kinase reaction competes with the ligand for antibody binding. Based on the larger molecular volume of the bound ligand, which results in a lower rotation rate in solution, its emitted light has a higher degree of polarization than the one from the free ligand.
In brief, the open reading frames of human Mnk1 and Mnk2a were amplified from cDNA using the forward/reverse primer pairs
(utilized restriction sites underlined), respectively, and cloned into the BamHI and SalI sites of the vector pGEX-4T1 (Amersham, Sweden, cat. no. 27-4580-01). These constructs allow prokaryotic expression of Mnk1 or Mnk2a as fusion protein with a N-terminal glutathione S-transferase (GST) tag, referred to as GST-Mnk1 or GST-Mnk2a. The following expression and purification procedure was identical for GST-Mnk1 and GST-Mnk2a, referring in general to GST-Mnk, when not distinguishing between the two isoforms. Expression of GST-Mnk was in E. coli BL21 (Merck Biosciences, Germany, cat. no. 69449). Cells were grown in LB-Bouillon (Merck, Germany, cat. no. 1.10285) supplemented with 100 μg/ml ampicillin (Sigma, Germany, cat. no. A9518) at 37° C. […] Cells harvested by centrifugation were resuspended in 10 ml lysis buffer (50 mM tris(hydroxymethyl)aminomethane hydrochloride (Tris/HCl, Sigma, Germany, cat. no. T5941) pH 7.5, 300 mM sodium chloride (NaCl, Sigma, Germany, cat. no. S7653), 5% (w/v) glycerol (Sigma, Germany, cat. no. G5516), 3 mM DTT dithiotreitol (DTT, Sigma, Germany, cat. no. D9779)) per gram wet weight cell pellet. Lysates were prepared by disruption of cells with a sonifier and subsequent clearing by centrifugation at 38000 g for 45 min at 4° C.
The lysate was applied to a GSTPrep FF 16/10 column (Amersham, Sweden, cat. no. 17-5234-01) equilibrated with lysis buffer. Removal of unbound material was with 3 column volumes (CV) lysis buffer. Elution was with 2 CV of elution buffer (50 mM Tris/HCl pH 7.5, 300 mM NaCl, 5% (w/v) glycerol, 20 mM glutathione (Sigma, Germany, cat. no. G4251)). Peak fractions were pooled and the protein transferred into storage buffer (50 mM Tris/HCl pH 7.5, 200 mM NaCl, 0.1 mM ethylene glycol[…] bis(2-aminoethylether)-N,N,N′,N′-tetraacetic acid (EGTA, Aldrich, Germany, cat. no. 23, 453-2), 1 mM DTT, 10% (w/v) glycerol, 0.5 M sucrose (Sigma, Germany, cat. no. S0389) by gel filtration on a PD10 desalting column (Amersham, Sweden, cat. no. 17-0851-01). Aliquots were shock frozen in liquid nitrogen and stored at −80° C.
Activation of Mnk1 and Mnk2a was at a concentration of 2.5 μM of either purified GST-Mnk1 or GST-Mnk2a by incubation with 150 nM pre-activated NHis-ERK2 (see ERK2 assay for preparation) and 50 μM adenosine triphosphate (ATP, Sigma, cat. no. A2699) in a buffer comprising 20 mM N-(2-hydroxyethyl)piperazine-N′-(2-ethanesulfonic acid) (HEPES, Fluka, Germany, cat. no 54459)/potassium hydroxide (KOH, Roth, Germany, cat. no 6751.1) pH 7.4, 10 mM magnesium chloride (MgCl2, Sigma, Germany, cat. no. M2670), 0.25 mM DTT, 0.05% (w/v) polyoxyethylene 20 stearylether (Brij 78, Sigma, Germany, cat. no. P4019) (HMDB buffer) for 45 min at 30° C. After the incubation, the preparation was aliquoted into single-use samples, shock frozen in liquid nitrogen, stored at −80° C. and utilized for Mnk1 or Mnk2a kinase assays as detailed below.
The serine residue phosphorylated by Mnk kinases is underlined.

Chain of human Mnk2a (Q9HBH9 whole entry): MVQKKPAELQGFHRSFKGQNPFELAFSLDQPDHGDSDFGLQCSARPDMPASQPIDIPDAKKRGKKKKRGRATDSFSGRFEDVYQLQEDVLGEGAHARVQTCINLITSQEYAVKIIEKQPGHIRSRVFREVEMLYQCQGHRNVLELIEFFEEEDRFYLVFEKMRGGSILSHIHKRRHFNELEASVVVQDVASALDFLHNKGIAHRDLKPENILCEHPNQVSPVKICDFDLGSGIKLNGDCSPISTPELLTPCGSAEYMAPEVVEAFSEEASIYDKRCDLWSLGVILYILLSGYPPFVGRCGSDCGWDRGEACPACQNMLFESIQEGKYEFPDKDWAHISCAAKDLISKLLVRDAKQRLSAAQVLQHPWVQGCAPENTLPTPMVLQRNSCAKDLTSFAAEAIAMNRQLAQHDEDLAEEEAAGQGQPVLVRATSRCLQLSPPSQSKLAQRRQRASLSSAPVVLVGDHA

Row | IC50 [nM] | Compound
1 | 164 | Cc1c(C(N)=O)sc2ncnc(Nc3ccc(F)cc3O[C@@H](C)CNC(=O)OC(C)(C)C)c12 (racemic) [Compound 6-1, (R) and (S)-tert-butyl 2-(2-(6-carbamoyl-5-methyl-thieno[2,3-d]pyrimidin-4-ylamino)-5-fluorophenoxy)propylcarbamate]
2 | 90 | Cc1c(C(N)=O)sc2ncnc(Nc3ccc(F)cc3O[C@@H](C)CN)c12 (racemic) [Compound 6-2, (R) and (S)-4-(2-(1-aminopropan-2-yloxy)-4-fluorophenylamino)-5-methylthieno[2,3-d]pyrimidine-6-carboxamide trifluoroacetate]
3 | 12 | Cc1c(C(=O)N[C@@H]2C[C@H]2N)sc2ncnc(Nc3ccc(F)cc3OC(CF)CF)c12 (relative stereo) [Compound 25, N-((trans)-2-Aminocyclopropyl)-4-(2-(1,3-difluoropropan-2-yloxy)-4-fluorophenylamino)-5-methylthieno[2,3-d]pyrimidine-6-carboxamide hydrochloride]
4 | 342 | CNC(=O)c1sc2ncnc(Nc3ccc(F)cc3OC(C)CNC(=O)OC(C)(C)C)c2c1C (stereo not shown) [Compound 1-3, tert-Butyl 2-(5-fluoro-2-(5-methyl-6-(methylcarbamoyl)thieno[2,3-d]pyrimidin-4-ylamino)phenoxy)propylcarbamate]
5 | 294 | Cc1c(C(=O)NCCCN(C)C)sc2ncnc(Nc3ccc(F)cc3OC(C)CNC(=O)OC(C)(C)C)c12 (stereo not shown) [Compound 1-4, tert-Butyl 2-(2-(6-(3-(dimethymino)propyl-carbamoyl)-5-methyl-thieno[2,3-d]pyrimidin-4-ylamino)-5-fluoro-phenoxy)propyl-carbamate]
6 | 459 | Cc1c(C(=O)NCCO)sc2ncnc(Nc3ccc(F)cc3OC(C)CNC(=O)OC(C)(C)C)c12 (stereo not shown) [Compound 1-5, tert-Butyl 2-(5-fluoro-2-(6-(2-hydroxyethyl-carbamoyl)-5-methylthieno[2,3-d]-pyrimidin-4-yl-amino)-phenoxy)propyl-carbamate]
7 | 70 | COC(=O)c1sc2ncnc(Nc3ccc(F)cc3OC(C)CN)c2c1C (stereo not shown) [Compound 2-1, Methyl 4-(2-(1-aminopropan-2-yloxy)-4-fluorophenylamino)-5-methyl-thieno[2,3-d]pyrimidine-6-carboxylate trifluoroacetate]
8 | 41 | Cc1c(C(=O)NCCCN(C)C)sc2ncnc(Nc3ccc(F)cc3OC(C)CN)c12 (stereo not shown) [Compound 2-2, 4-(2-(1-Amino-propan-2-yloxy)-4-fluorophenylamino)-N-(3-(diemthyl-amino)propyl)-5-methylthieno[2,3-d]pyrimidine-6-carboxamide bis(trifloroacetate)]
9 | 50 | Cc1c(C(=O)NCCO)sc2ncnc(Nc3ccc(F)cc3OC(C)CN)c12 (stereo not shown) [Compound 2-3, 4-(2-(1-Amino-propan-2-yloxy)-4-fluorophenylamino)-N-(2-hydroxy-ethyl)-5-methyl-thieno[2,3-d]-pyrimidine-6-carboxamide]
10 | 23 | CNC(=O)c1sc2ncnc(Nc3ccc(F)cc3OC(C)CN)c2c1C (stereo not shown) [Compound 2-4, 4-(2-(1-Amino-propan-2-yloxy)-4-fluorophenylamino)-N-5-methyl-thieno[2,3-d]-pyrimidin-6-carboxamide trifluoroacetate]
11 | 41 | COC(=O)c1sc2ncnc(Nc3ccc(F)cc3OC(C)CNS(C)(=O)=O)c2c1C (stereo not shown) [Compound 3-1, Methyl 4-(4-fluoro-(2-(1-methylsulfonamido)propan-2-yloxy)phenylamino)-5-methyl-thieno[2,3-d]pyrimidine-6-carboxylate]
12 | 204 | COC(=O)c1sc2ncnc(Nc3ccc(F)cc3OC(C)CNS(=O)(=O)C(C)C)c2c1C (stereo not shown) [Compound 3-2, Methyl 4-(4-fluoro-2-(1-(1-methylethylsulfon-amino)propan-2yloxy)-phenylamino)-5-methyl-thieno[2,3-d]pyrimidine-6-carboxylate]
13 | 18 | Cc1c(C(=O)NCCCN(C)C)sc2ncnc(Nc3ccc(F)cc3OC(C)CNS(C)(=O)=O)c12 (stereo not shown) [Compound 3-3]
14 | 261 | COC(=O)c1sc2ncnc(Nc3ccc(F)cc3OC(C)CNC(C)=O)c2c1C (stereo not shown) [Compound 3-4, Methyl 4-(2-(1-acet-amidopropan-2-yloxy)-4-fluorophenylamino)-5-methylthieno[2,3-d]pyrimidine-6-carboxylate]
15 | 443 | COC(=O)c1sc2ncnc(Nc3ccc(F)cc3OC(C)CNC(=O)C(C)C)c2c1C (stereo not shown) [Compound 3-5, Methyl 4-(4-fluoro2-(1-isobutyramidopropan-2-yloxy)phenylamino)-5-methylthieno[2,3-d]-pyrimidine-6-carboxylate]
16 | 3140 | COC(=O)c1sc2ncnc(Nc3ccc(F)cc3OC(C)CN(C)C)c2c1C (stereo not shown) [Compound 4, Methyl 4-(2-(1-dimethylamino)propan-2yloxy)-4-fluorophenylamino)-5-methyl-thieno[2,3-d]pyrimidine-6-carboxylate trifluoroacetate]
17 | 230 | Cc1c(C(N)=O)sc2ncnc(Nc3ccc(F)cc3OC(C)CNC(=O)OC(C)(C)C)c12 (stereo not shown) [Compound 5, tert-Butyl 2-(2-(6-carbamoyl-5-methyl-thieno[2,3-d]pyrimidin-4-ylamino)-5-fluorophenoxy)propylcarbamate]
18 | 14 | Cc1c(C(=O)O)sc2ncnc(Nc3ccc(F)cc3OC(C)CN)c12 (stereo not shown) [Compound 7, 4-(2-(1-Aminopropan-2-yloxy)-4-fluorophenylamino)-5-methyl-thieno[2,3-d]pyrimidine-6-carboxylic acid trifluoroacetate]
19 | 64 | Cc1c(C(N)=O)sc2ncnc(Nc3ccc(F)cc3OC(C)CNCCC(F)(F)F)c12 (stereo not shown) [Compound 8-2]
20 | 577 | COC(=O)c1sc2ncnc(Nc3ccc(F)cc3OCCN)c2c1C [Compound 9-2, Methyl 4-(2-(2-aminoethoxy)-4-fluorophenylamino)-5-methyl-thieno[2,3-d]pyrimidine-6-carboxylate hydrochloride]
21 | 229 | CCC(CN)Oc1cc(F)ccc1Nc1ncnc2sc(C(=O)OC)c(C)c12 (stereo not shown) [Compound 10-2, Methyl 4-(2-(1-aminobutan-2yloxy)-4-fluorophenylamino)-5-methyl-thieno[2,3-d]pyrimidine-6-carboxylate hydrochloride]
22 | 418 | COC(=O)c1sc2ncnc(Nc3cccnc3OC(C)CN)c2c1C (stereo not shown) [Compound 11-2, Methyl 4-(2-(1-aminopropan-2yloxy)-pyridin-3-ylamino)-5-methyl-thieno[2,3-d]pyrimidine-6-carboxylate hydrochloride]
23 | 52 | COC(=O)c1sc2ncnc(Nc3ccc(F)cc3OC(C)CCN)c2c1C (stereo not shown) [Compound 12, Methyl 4-(2-(4-aminobutan-2yloxy)-4-fluorophenylamino)-5-methyl-thieno[2,3-d]pyrimidine-6-carboxylate hydrochloride]
24 | 90 | COC(=O)c1sc2ncnc(Nc3ccc(F)cc3OC(C)CCNS(C)(=O)=O)c2c1C (stereo not shown) [Compound 13, Methyl 4-(4-fluoro-2-(4-(methylsulfonamido)butan-2yloxy)phenylamino)-5-methyl-thieno[2,3-d]pyrimidine-6-carboxylate]

Row | Compound | IC50 [nM]
25 | Cc1c(C(=O)O)sc2ncnc(Nc3ccc(F)cc3OC(C)CNC(=O)OC(C)(C)C)c12 (stereo not shown) [Compound 1-2, 4-(2-(1-(tert-Butoxycarbonylamino)propan-2-yloxy)-4-fluorophenylamino)-5-methyl-thieno[2,3-d]pyrimidine-6-carboxylic acid] | 52

From patent US8853193B2, “Thienopyrimidines containing a substituted alkyl group for pharmaceutical compositions” (Boehringer Ingelheim International GmbH, priority 2010, dated 2014)
